For eleven compounds, AC50 results are on record in ChEMBL document CHEMBL5291721, “A preclinical secondary pharmacology resource illuminates target-adverse drug reaction associations of marketed drugs” (Nat Commun, 2023).

Structures are written as SMILES. Where only a bound is given, the exact number is not on record here.

One experiment deals with Adenosine receptor A2a (Homo sapiens, UniProt P29274).
Experiment [1] addresses Beta-2 adrenergic receptor (Homo sapiens, UniProt P07550).
For experiment [2], the target named is Voltage-dependent L-type calcium channel subunit alpha-1C (Rattus norvegicus, UniProt P22002). Type of experiment: functional.
Experiment [3] concerns the target T1, Muscarinic acetylcholine receptor M2 (Homo sapiens, UniProt P08172).
T1 sequence (P08172 whole entry): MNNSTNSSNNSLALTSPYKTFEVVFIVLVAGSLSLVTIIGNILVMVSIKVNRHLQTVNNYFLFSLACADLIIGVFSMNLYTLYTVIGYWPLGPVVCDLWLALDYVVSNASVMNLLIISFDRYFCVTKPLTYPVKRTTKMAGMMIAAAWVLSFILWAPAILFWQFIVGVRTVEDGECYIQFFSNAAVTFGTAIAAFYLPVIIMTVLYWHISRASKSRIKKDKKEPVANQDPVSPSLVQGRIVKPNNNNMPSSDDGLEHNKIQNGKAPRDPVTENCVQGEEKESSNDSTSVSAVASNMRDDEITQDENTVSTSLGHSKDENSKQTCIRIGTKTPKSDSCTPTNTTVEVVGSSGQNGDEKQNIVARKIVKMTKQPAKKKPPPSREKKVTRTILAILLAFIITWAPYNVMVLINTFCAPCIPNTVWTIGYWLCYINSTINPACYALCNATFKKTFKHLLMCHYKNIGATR
Type of experiment: functional, cell-based.

The target of experiment [4] is T2, Gamma-aminobutyric acid receptor subunit alpha-1 (Rattus norvegicus, UniProt P62813).
For experiment [5], the target named is T2, Gamma-aminobutyric acid receptor subunit alpha-1. Type of experiment: functional.
Experiment [6] concerns the target Growth hormone secretagogue receptor type 1 (Homo sapiens, UniProt Q92847).
Experiment [7] has as its target T3, 5-hydroxytryptamine receptor 1A (Homo sapiens, UniProt P08908).
T3 sequence (P08908 whole entry): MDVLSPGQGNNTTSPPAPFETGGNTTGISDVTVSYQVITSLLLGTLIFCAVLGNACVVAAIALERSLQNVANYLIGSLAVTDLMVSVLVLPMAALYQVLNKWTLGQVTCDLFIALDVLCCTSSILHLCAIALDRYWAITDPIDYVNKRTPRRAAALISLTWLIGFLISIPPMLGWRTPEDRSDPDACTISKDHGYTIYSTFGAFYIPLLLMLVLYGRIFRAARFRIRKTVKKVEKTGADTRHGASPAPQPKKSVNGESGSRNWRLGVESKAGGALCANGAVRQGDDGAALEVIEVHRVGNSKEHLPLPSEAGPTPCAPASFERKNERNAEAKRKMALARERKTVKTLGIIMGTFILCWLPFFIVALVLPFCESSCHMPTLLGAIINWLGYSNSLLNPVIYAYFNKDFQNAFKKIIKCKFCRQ
Type of experiment: functional, cell-based.

A further experiment concerns the target T4, Glucocorticoid receptor (Homo sapiens, UniProt P04150).
T4 sequence (P04150 whole entry): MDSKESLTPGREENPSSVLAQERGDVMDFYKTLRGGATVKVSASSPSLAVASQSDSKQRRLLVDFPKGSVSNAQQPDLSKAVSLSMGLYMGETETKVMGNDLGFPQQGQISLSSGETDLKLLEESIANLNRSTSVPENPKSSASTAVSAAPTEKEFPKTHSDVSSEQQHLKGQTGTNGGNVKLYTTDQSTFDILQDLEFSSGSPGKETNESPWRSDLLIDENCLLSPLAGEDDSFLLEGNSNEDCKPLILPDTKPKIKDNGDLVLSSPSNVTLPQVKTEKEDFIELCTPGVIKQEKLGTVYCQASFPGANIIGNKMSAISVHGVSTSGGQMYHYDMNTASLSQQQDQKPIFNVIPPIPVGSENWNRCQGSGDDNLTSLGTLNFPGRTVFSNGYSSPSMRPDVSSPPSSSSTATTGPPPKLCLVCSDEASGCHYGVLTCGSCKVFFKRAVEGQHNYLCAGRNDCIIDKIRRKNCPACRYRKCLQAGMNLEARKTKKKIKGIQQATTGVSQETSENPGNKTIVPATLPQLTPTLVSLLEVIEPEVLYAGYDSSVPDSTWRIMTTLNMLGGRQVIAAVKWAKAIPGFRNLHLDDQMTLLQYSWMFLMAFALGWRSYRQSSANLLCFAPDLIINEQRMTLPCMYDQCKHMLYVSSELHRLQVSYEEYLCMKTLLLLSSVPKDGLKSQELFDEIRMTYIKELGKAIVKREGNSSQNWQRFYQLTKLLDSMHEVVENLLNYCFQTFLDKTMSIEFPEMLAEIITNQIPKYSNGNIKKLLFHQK

A further experiment concerns the target T5, Progesterone receptor (Homo sapiens, UniProt P06401).
T5 sequence (P06401 whole entry): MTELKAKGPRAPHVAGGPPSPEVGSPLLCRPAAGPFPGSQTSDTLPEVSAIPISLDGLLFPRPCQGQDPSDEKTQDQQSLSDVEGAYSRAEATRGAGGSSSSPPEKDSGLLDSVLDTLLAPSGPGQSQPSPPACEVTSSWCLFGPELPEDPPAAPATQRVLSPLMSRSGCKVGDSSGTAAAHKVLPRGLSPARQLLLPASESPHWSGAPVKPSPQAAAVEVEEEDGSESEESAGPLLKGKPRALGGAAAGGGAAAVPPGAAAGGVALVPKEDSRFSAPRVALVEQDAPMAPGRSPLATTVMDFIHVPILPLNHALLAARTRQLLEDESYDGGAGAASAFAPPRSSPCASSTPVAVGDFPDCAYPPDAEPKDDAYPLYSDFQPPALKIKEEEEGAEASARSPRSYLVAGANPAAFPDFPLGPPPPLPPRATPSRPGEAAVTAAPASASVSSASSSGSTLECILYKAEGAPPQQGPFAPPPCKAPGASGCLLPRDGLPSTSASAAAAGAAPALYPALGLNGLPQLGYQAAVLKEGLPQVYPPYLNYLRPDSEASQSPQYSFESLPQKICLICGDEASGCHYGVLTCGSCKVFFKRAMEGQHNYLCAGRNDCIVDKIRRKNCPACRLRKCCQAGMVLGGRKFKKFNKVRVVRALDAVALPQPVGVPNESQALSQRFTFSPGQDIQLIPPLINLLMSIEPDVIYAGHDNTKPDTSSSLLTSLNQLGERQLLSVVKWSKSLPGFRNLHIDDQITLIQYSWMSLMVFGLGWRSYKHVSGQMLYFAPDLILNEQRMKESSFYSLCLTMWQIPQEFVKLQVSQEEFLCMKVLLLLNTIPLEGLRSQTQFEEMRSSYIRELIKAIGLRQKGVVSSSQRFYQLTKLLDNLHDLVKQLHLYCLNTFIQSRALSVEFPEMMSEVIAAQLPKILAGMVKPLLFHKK
Type of experiment: functional.

Another experiment deals with Histamine H3 receptor (Homo sapiens, UniProt Q9Y5N1).
Further: assay procedure not described here.

Chain of Adenosine receptor A2a (P29274 whole entry): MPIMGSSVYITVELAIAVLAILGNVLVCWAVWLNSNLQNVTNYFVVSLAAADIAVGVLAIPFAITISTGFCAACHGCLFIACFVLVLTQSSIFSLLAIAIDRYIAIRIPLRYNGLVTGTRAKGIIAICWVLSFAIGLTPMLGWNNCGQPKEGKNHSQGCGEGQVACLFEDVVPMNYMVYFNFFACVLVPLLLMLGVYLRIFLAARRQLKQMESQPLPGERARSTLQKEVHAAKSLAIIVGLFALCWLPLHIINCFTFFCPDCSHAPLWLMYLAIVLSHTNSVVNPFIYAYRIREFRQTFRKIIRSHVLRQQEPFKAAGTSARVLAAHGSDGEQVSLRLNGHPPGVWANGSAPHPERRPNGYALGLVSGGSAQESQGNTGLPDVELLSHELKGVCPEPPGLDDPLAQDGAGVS
Chain of Beta-2 adrenergic receptor (P07550 whole entry): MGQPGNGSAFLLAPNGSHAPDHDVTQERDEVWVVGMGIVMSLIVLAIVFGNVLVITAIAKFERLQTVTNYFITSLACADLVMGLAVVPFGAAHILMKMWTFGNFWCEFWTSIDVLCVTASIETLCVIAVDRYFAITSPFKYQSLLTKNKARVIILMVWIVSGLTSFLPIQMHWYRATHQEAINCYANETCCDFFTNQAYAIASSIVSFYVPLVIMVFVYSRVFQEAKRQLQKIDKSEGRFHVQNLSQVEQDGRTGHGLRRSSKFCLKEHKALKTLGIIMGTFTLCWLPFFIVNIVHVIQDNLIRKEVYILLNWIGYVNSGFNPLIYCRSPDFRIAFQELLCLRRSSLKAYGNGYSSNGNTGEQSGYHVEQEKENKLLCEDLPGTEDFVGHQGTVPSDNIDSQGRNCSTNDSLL
Chain of Growth hormone secretagogue receptor type 1 (Q92847 whole entry): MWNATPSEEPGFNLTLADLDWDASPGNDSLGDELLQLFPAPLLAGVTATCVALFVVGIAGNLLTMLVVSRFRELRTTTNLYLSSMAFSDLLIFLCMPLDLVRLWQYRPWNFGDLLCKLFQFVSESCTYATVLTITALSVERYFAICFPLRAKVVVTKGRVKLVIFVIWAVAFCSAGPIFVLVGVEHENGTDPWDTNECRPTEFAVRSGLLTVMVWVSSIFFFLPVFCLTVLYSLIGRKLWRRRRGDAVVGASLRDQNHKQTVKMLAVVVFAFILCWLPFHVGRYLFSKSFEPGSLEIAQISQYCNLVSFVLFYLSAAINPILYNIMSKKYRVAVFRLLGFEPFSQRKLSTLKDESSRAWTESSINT
Chain of Voltage-dependent L-type calcium channel subunit alpha-1C (P22002 whole entry): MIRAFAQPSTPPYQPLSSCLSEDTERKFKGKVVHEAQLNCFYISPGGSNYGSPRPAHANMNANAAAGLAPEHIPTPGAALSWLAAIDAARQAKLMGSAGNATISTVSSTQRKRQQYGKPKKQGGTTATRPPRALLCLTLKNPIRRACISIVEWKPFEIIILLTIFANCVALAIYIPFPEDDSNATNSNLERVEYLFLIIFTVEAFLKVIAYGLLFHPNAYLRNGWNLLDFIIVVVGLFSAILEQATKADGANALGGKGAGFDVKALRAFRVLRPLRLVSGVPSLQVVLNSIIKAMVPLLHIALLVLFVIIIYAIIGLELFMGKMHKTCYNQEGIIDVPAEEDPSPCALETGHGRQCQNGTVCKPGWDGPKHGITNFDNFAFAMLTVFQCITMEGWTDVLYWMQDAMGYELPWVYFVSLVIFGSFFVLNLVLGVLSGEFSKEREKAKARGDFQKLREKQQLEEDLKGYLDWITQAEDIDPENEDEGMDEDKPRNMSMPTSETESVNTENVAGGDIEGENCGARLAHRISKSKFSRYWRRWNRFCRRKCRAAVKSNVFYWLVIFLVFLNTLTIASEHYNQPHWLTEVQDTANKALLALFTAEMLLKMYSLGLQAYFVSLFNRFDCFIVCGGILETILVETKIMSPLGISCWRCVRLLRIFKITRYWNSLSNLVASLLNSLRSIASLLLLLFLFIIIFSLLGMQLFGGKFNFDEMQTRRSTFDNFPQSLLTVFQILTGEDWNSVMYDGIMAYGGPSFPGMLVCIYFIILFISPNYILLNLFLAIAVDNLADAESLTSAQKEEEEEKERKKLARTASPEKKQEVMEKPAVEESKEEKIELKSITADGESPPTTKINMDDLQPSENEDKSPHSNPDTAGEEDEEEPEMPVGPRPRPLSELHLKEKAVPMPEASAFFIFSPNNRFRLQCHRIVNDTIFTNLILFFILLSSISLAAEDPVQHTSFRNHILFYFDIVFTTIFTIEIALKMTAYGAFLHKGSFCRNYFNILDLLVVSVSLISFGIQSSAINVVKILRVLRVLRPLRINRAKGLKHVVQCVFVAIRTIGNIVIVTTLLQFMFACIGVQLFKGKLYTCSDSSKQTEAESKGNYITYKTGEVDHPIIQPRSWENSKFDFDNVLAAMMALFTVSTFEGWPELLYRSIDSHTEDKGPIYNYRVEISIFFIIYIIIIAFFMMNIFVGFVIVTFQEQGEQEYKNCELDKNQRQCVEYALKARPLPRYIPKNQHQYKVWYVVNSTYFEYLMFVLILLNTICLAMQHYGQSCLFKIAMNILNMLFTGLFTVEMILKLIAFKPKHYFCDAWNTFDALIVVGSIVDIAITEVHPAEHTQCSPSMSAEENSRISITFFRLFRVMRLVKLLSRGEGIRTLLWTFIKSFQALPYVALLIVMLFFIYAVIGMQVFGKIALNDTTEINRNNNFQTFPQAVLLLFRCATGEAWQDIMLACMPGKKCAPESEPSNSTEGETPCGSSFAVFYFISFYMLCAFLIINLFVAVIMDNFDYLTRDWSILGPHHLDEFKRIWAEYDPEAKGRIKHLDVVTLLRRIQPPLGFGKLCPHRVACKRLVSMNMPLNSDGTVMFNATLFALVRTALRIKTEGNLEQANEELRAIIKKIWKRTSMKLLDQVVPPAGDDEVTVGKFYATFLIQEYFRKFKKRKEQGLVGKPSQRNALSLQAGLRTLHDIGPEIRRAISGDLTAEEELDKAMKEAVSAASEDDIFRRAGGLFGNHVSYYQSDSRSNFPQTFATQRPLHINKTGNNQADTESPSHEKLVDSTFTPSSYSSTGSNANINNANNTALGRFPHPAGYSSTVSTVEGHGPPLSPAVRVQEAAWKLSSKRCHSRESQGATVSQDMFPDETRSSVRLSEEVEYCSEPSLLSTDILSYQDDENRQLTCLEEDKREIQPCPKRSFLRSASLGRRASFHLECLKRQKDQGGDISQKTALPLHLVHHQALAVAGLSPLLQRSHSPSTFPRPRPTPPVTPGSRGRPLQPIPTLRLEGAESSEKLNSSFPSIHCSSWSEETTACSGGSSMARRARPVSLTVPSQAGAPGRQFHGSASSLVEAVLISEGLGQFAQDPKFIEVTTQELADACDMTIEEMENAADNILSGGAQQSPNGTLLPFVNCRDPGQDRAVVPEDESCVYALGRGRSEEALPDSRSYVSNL
Chain of Histamine H3 receptor (Q9Y5N1 whole entry): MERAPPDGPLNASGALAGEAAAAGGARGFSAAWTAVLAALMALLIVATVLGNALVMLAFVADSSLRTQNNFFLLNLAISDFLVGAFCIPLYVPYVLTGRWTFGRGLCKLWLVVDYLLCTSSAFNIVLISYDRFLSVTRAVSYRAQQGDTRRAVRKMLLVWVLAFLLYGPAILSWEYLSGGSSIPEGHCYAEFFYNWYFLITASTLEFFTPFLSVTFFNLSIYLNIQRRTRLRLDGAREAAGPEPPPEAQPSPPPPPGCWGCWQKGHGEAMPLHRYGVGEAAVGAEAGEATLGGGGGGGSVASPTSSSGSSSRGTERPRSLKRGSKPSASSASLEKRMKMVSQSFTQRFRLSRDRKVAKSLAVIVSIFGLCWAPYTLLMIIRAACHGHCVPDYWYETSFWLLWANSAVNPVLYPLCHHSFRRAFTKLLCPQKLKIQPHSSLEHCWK
T2 sequence (P62813 whole entry): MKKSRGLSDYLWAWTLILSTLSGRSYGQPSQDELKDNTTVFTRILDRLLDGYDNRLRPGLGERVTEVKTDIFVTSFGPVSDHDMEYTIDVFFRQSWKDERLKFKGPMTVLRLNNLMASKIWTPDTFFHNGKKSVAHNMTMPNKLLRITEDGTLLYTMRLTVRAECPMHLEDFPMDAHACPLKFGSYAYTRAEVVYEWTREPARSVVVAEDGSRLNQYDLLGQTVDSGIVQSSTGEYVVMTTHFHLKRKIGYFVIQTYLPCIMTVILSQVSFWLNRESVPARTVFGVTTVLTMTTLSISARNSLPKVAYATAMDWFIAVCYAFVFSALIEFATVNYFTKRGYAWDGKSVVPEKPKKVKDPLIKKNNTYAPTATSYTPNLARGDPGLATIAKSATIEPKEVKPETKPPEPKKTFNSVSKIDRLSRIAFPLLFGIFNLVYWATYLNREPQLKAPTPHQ

Broadly, the AC50 is the concentration at which the activity in the assay is half-maximal. For `NCC[C@H](O)C(=O)N[C@@H]1C[C@H](N)[C@@H](O[C@H]2O[C@H](CN)[C@@H](O)[C@H](O)[C@H]2O)[C@H](O)[C@H]1O[C@H]1O[C@H](CO)[C@@H](O)[C@H](N)[C@H]1O` [AMIKACIN], the concentration at half-maximal activity (AC50) (at Adenosine receptor A2a; in experiment [1]; in [2]; in experiment [3]; in [4]; in experiment [5]) was more than 10 µM in each case. Also, the AC50 (in [6]; in experiment [7]; on Glucocorticoid receptor; on Progesterone receptor) was more than 10 µM throughout.
Regarding `COC(=O)C1=C(C)NC(C)=C(C(=O)OC2CCCN(Cc3ccccc3)C2)C1c1cccc([N+](=O)[O-])c1` (stereo not drawn) [BENIDIPINE], the AC50 on Adenosine receptor A2a was more than 30 µM; in experiment [1], more than 30 µM; in [2], 0.014 µM; in [3], more than 30 µM; in experiment [4], more than 30 µM; in experiment [5], more than 30 µM. Besides, the AC50 in [6] is 26 µM; in experiment [7] it was more than 30 µM; at Glucocorticoid receptor it was more than 30 µM; at Histamine H3 receptor, more than 30 µM.
As for `C=CCC1(CC(C)C)C(=O)NC(=O)NC1=O` [BUTALBITAL], the AC50 (at Adenosine receptor A2a; in [1]; in experiment [2]; in experiment [3]; in experiment [4]; in [5]) was more than 10 µM throughout. Further, the AC50 (in [6]; in experiment [7]; at Glucocorticoid receptor; on Progesterone receptor) was more than 10 µM each time.
`C#C[C@]1(O)CC[C@H]2[C@@H]3CCC4=Cc5oncc5C[C@]4(C)[C@H]3CC[C@@]21C` [DANAZOL]: the AC50 was more than 30 µM on Adenosine receptor A2a; more than 10 µM in experiment [1]; more than 10 µM in experiment [2]; more than 10 µM in experiment [4]; more than 10 µM in experiment [5]; more than 10 µM in [6]. In addition, the AC50 in experiment [7] is more than 10 µM; at Glucocorticoid receptor, 0.111 µM; on Histamine H3 receptor, more than 10 µM.
For the compound `CC(=O)OCC(=O)[C@@]12N=C(C)O[C@@H]1C[C@H]1[C@@H]3CCC4=CC(=O)C=C[C@]4(C)[C@H]3[C@@H](O)C[C@@]12C` [DEFLAZACORT], the AC50 (at Adenosine receptor A2a; in experiment [1]; in experiment [2]; in experiment [3]; in experiment [4]; in experiment [5]) was more than 30 µM in each case. Further, the AC50 in experiment [6] was more than 30 µM; in [7], more than 30 µM; at Glucocorticoid receptor it was 0.66 µM; at Histamine H3 receptor it was more than 30 µM.
For `CCCCc1ncc(/C=C(\Cc2cccs2)C(=O)O)n1Cc1ccc(C(=O)O)cc1` [EPROSARTAN], the AC50 (at Adenosine receptor A2a; in [1]; in experiment [2]; in experiment [3]; in experiment [4]; in [5]) was more than 10 µM in each case. In addition, the AC50 in experiment [6] was more than 10 µM; in experiment [7] it was more than 10 µM; at Glucocorticoid receptor it was more than 30 µM; at Histamine H3 receptor, more than 10 µM.
For the compound `COc1ccc(CCN(C)CCCC(C#N)(c2cc(OC)c(OC)c(OC)c2)C(C)C)cc1OC` (stereo not drawn) [GALLOPAMIL], the AC50 (at Adenosine receptor A2a; in experiment [1]; in experiment [3]; in experiment [4]; in experiment [5]; in experiment [6]) was more than 30 µM throughout. Moreover, the AC50 (in experiment [7]; at Glucocorticoid receptor; at Histamine H3 receptor) was more than 30 µM each time.
For `CC(C)(C)c1cc(C(C)(C)C)c(NC(=O)c2c[nH]c3ccccc3c2=O)cc1O` [IVACAFTOR], the AC50 is more than 30 µM on Adenosine receptor A2a; more than 10 µM in [1]; more than 10 µM in experiment [2]; more than 10 µM in [4]; more than 10 µM in experiment [5]; more than 30 µM in [6]. Besides, the AC50 was more than 30 µM on Glucocorticoid receptor and more than 10 µM on Histamine H3 receptor.
Turning to `Clc1ccc(CCCOCCCN2CCCCC2)cc1` [PITOLISANT], the AC50 (at Adenosine receptor A2a; in experiment [3]; in experiment [4]; in experiment [5]; in [6]; in experiment [7]) was more than 30 µM throughout. Further, the AC50 on Glucocorticoid receptor and on Progesterone receptor was more than 30 µM in each case.
As to `CN1CCC(=C2c3ccccc3CCc3sccc32)CC1` [PIZOTYLINE], the AC50 was more than 30 µM at Adenosine receptor A2a; 5.8 µM in experiment [1]; 20.1 µM in experiment [2]; more than 30 µM in experiment [3]; more than 10 µM in [4]; more than 10 µM in [5]. Further, the AC50 is more than 30 µM in experiment [6], 3.56 µM in [7], more than 30 µM on Glucocorticoid receptor and more than 10 µM at Histamine H3 receptor.
Consider `C[C@]12CC[C@H]3[C@@H](CCC4=CC(=O)CC[C@@]43C)[C@@H]1CC[C@@H]2O` [TESTOSTERONE], for which the AC50 (on Adenosine receptor A2a; in experiment [1]; in [2]; in experiment [3]; in [4]; in [5]) was more than 10 µM each time. Further, the AC50 is more than 10 µM in experiment [6], more than 10 µM in [7] and 0.246 µM on Glucocorticoid receptor.
